Experiments:
Experiment in all cases: Kinase panel activity
Assay type in all cases: biochemical
Details in all cases: 0.1 μM, ATP Km
WNK3(h) = WNK3(h) (Homo sapiens, UniProt Q9BYP7)
Experimental: (§1) The effect of NTW-3475 on kinase activity was tested for a wide range of kinases and is shown in Table 2: Summary Sheet, Activity % ATP Concentration: Km

Rsk1(r) = molecular target: T1, Rsk1(r) (Rattus norvegicus, UniProt Q63531)
T1 construct: purchased Millipore (KinaseProfiler service)
Experimental: as §1

DAPK1(h) = DAPK1(h) (Homo sapiens, UniProt P53355)
Experimental: as §1

NEK11(h) = NEK11(h) (Homo sapiens, UniProt Q8NG66)
Experimental: as §1

PrKX(h) = molecular target: T2, PrKX(h) (Homo sapiens, UniProt P51817)
T2 construct: purchased Millipore (KinaseProfiler service)
Experimental: as §1

B1k(h) = B1k(h) (Homo sapiens, UniProt P51451)
Experimental: as §1

CDK1/cyclinB(h) = CDK1/cyclinB(h) (Homo sapiens, UniProt P06493)
Experimental: as §1

Tie2(R849W)(h) = molecular target: T3, Tie2(R849W)(h) (Homo sapiens, UniProt Q02763, R849W)
T3 construct: purchased Millipore (KinaseProfiler service)
Experimental: as §1

Src(T341M)(h) = molecular target: T4, Src(T341M)(h) (Homo sapiens, UniProt P12931, T341M)
T4 construct: purchased Millipore (KinaseProfiler service)
Experimental: as §1

ROCK-I(h) = molecular target: T5, ROCK-I(h) (Homo sapiens, UniProt Q13464)
T5 construct: purchased Millipore (KinaseProfiler service)
Experimental: as §1

Fms(h) = Fms(h) (Homo sapiens, UniProt P07333)
Experimental: as §1

CaMKIIγ(h) = CaMKIIγ(h) (Homo sapiens, UniProt Q13555)
Experimental: as §1

EphB3(h) = molecular target: T6, EphB3(h) (Homo sapiens, UniProt P54753)
T6 construct: purchased Millipore (KinaseProfiler service)
Experimental: as §1

PDGFRα(D842V)(h) = PDGFRα(D842V)(h) (Homo sapiens, UniProt P16234, D842V)
Experimental: as §1

Fgr(h) = Fgr(h) (Homo sapiens, UniProt P09769)
Experimental: as §1

IGF-1R(h) = IGF-1R(h) (Homo sapiens, UniProt P08069)
Experimental: as §1

PKCι(h) = PKCι(h) (Homo sapiens, UniProt P41743)
Experimental: as §1

CaMKIIδ(h) = CaMKIIδ(h) (Homo sapiens, UniProt Q13557)
Experimental: as §1

CDK5/p35(h) = CDK5/p35(h) (Homo sapiens, UniProt Q00535)
Experimental: as §1

TrkA(h) = molecular target: T7, TrkA(h) (Homo sapiens, UniProt P04629)
T7 construct: purchased Millipore (KinaseProfiler service)
Experimental: as §1

Ab1(H396P)(h) = Ab1(H396P)(h) (Homo sapiens, UniProt P00519, H396P)
Experimental: as §1

DCAMKL2(h) = DCAMKL2(h) (Homo sapiens, UniProt Q8N568)
Experimental: as §1

CDK3/cyclinE(h) = CDK3/cyclinE(h) (Homo sapiens, UniProt Q00526)
Experimental: as §1

CDK2/cyclinE(h) = CDK2/cyclinE(h) (Homo sapiens, UniProt P24941)
Experimental: as §1

JNK2α2(h) = JNK2α2(h) (Homo sapiens, UniProt P45984)
Experimental: as §1

MAPK1(h) = MAPK1(h) (Homo sapiens, UniProt P27361)
Experimental: as §1

PKC ? (h) = PKC ? (h) (Homo sapiens, UniProt Q02156)
Experimental: as §1

ACK1(h) = ACK1(h) (Homo sapiens, UniProt Q07912)
Experimental: as §1

GRK6(h) = GRK6(h) (Homo sapiens, UniProt P43250)
Experimental: as §1

Rsk3(h) = molecular target: T8, Rsk3(h) (Homo sapiens, UniProt Q15349)
T8 construct: purchased Millipore (KinaseProfiler service)
Experimental: as §1

Met(Y1248H)(h) = molecular target: T9, Met(Y1248H)(h) (Homo sapiens, UniProt P08581, Y1230H)
T9 construct: purchased Millipore (KinaseProfiler service)
Experimental: as §1

MAPK2(m) = MAPK2(m) (Mus musculus, UniProt P63085)
Experimental: as §1

LIMK1(h) = LIMK1(h) (Homo sapiens, UniProt P53667)
Experimental: as §1

SAPK2a(h) = molecular target: T10, SAPK2a(h) (Homo sapiens, UniProt Q16539)
T10 construct: purchased Millipore (KinaseProfiler service)
Experimental: as §1

EphB2(h) = molecular target: T11, EphB2(h) (Homo sapiens, UniProt P29323)
T11 construct: purchased Millipore (KinaseProfiler service)
Experimental: as §1

ALK(h) = ALK(h) (Homo sapiens, UniProt Q9UM73)
Experimental: as §1

eEF-2K(h) = molecular target: T12, eEF-2K(h) (Homo sapiens, UniProt O00418)
T12 construct: purchased Millipore (KinaseProfiler service)
Experimental: as §1

CK2(h) = CK2(h) (Homo sapiens, UniProt P68400)
Experimental: as §1

FGFR2(h) = FGFR2(h) (Homo sapiens, UniProt P21802)
Experimental: as §1

ALK(h), sequence (Q9UM73 19-1620): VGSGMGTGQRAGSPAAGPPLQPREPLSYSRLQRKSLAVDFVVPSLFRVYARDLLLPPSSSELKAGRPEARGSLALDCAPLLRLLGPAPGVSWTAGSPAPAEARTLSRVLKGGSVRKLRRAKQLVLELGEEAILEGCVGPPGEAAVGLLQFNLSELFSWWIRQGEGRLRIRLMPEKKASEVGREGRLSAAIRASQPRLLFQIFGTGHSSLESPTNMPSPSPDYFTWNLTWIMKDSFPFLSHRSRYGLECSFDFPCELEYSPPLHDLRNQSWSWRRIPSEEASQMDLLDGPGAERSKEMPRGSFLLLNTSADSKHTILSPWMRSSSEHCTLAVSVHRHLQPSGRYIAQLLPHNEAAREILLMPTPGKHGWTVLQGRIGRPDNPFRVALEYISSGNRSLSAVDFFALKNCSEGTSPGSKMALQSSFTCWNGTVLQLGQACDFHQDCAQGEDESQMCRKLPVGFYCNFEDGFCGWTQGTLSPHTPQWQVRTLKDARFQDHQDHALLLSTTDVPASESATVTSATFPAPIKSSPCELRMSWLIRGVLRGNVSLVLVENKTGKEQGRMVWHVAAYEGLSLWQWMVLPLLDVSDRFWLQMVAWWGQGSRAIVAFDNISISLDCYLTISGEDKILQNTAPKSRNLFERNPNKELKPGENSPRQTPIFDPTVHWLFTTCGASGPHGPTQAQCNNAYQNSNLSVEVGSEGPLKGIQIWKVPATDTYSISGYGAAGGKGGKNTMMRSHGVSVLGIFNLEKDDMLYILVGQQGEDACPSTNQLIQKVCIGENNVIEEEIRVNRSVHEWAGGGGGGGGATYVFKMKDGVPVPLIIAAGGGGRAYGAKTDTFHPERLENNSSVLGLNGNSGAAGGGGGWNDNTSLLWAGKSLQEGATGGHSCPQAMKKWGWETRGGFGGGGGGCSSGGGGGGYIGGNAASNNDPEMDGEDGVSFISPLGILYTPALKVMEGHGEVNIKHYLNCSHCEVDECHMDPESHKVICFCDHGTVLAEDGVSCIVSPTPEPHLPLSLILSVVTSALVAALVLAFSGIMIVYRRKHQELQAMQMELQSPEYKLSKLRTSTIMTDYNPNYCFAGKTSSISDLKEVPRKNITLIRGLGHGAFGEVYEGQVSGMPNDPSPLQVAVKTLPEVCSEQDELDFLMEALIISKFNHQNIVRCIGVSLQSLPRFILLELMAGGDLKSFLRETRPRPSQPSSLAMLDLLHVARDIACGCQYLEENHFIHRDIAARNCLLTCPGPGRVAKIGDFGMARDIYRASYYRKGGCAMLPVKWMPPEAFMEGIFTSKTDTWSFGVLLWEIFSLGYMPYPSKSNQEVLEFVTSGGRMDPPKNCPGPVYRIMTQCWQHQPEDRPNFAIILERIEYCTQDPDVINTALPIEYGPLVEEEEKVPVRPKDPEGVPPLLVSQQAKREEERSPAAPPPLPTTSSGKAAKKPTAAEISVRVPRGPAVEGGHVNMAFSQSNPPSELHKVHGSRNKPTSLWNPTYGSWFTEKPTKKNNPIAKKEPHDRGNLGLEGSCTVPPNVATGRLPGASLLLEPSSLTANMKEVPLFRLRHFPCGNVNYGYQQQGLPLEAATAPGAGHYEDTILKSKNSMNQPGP
PDGFRα(D842V)(h), sequence (P16234 24-1089 D842V): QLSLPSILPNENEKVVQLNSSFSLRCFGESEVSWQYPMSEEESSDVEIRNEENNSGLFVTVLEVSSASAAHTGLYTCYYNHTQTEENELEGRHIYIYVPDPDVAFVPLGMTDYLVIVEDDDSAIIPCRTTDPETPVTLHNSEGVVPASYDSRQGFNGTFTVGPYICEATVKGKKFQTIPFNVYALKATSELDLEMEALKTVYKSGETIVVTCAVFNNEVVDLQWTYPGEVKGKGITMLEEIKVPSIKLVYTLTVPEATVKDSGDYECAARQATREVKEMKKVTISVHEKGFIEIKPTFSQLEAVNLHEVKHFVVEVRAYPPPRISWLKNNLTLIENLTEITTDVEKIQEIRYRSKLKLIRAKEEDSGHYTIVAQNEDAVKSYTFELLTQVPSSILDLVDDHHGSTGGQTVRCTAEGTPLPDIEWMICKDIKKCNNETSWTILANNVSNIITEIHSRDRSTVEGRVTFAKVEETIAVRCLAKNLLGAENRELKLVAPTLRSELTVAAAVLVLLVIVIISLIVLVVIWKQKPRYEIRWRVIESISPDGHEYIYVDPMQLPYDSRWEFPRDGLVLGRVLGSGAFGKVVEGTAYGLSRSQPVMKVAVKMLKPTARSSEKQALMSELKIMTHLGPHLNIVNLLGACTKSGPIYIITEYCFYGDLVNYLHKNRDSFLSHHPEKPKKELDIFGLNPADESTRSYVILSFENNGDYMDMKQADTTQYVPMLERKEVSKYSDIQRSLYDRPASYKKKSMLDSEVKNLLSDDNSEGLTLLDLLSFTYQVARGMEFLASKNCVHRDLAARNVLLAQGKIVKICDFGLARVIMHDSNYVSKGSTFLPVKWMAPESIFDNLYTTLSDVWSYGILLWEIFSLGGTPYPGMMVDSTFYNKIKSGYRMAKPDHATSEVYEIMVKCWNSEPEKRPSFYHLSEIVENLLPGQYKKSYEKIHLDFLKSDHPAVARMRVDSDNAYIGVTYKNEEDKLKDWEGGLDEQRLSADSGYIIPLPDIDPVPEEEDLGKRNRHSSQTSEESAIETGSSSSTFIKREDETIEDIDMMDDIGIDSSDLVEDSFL
NEK11(h), sequence (Q8NG66 whole entry): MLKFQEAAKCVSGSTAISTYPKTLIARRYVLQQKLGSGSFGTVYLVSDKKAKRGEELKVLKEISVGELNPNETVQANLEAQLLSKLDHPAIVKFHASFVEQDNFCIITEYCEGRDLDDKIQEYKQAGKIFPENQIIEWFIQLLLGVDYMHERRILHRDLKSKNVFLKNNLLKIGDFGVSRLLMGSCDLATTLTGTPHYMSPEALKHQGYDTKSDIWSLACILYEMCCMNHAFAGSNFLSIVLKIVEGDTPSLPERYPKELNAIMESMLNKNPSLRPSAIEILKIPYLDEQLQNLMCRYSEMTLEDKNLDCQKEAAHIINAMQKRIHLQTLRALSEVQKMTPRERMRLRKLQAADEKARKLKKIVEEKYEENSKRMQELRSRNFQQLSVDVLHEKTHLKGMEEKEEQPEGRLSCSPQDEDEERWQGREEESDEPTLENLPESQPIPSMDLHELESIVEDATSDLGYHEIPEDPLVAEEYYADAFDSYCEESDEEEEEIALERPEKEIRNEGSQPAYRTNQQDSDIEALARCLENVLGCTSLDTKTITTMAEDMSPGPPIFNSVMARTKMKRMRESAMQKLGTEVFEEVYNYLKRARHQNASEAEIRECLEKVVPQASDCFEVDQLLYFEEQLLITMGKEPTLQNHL
Fms(h), sequence (P07333 20-972): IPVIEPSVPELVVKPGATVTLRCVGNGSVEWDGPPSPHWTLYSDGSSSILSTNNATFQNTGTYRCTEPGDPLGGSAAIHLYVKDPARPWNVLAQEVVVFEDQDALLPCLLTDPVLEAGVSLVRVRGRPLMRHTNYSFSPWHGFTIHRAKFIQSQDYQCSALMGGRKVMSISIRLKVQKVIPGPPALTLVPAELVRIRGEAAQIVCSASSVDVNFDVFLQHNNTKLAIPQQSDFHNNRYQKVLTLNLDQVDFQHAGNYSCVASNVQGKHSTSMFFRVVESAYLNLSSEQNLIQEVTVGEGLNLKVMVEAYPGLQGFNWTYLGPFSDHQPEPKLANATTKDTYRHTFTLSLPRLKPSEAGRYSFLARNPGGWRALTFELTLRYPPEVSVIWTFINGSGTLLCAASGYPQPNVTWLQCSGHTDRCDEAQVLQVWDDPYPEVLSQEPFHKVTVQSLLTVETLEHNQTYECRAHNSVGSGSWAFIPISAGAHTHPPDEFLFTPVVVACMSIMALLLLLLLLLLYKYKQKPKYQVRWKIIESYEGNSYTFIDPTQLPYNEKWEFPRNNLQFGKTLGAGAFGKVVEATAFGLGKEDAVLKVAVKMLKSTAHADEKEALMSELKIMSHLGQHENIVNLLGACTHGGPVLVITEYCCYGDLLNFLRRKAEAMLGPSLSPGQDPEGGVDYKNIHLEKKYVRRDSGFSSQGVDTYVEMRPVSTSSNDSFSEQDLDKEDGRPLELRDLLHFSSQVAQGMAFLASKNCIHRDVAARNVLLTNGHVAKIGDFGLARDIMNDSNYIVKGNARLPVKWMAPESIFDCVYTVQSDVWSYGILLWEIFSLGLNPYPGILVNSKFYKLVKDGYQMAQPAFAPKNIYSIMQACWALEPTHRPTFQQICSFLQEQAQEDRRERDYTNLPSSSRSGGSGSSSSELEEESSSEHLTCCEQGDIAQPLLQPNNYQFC
PKCι(h), sequence (P41743 whole entry): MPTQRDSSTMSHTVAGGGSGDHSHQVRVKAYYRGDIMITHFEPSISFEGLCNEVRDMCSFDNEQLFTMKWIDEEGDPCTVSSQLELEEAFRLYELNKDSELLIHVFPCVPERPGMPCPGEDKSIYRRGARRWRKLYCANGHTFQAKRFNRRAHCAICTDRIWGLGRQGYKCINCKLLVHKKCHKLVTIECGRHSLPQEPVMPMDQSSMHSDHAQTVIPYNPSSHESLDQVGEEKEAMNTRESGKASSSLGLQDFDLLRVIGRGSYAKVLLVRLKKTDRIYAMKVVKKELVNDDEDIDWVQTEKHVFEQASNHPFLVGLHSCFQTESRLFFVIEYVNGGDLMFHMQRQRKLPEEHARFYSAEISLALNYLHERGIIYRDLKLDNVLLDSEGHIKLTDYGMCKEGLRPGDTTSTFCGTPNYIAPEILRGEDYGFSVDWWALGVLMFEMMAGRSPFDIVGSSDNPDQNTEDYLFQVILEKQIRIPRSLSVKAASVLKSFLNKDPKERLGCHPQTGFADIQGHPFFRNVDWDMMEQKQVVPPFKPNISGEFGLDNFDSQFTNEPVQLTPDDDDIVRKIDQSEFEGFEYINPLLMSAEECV

Cc1cc2c(F)c(Oc3nc(Nc4cc(C5CC5)[nH]n4)cc(N4CCN(C)CC4)n3)cc(F)c2[nH]1 [NTW-3475]
Activity % (WNK3(h)): 86% | Activity % (Rsk1(r)): 69% | Activity % (DAPK1(h)): 88% | Activity % (NEK11(h)): 102% | Activity % (PrKX(h)): 68% | Activity % (B1k(h)): 9% | Activity % (CDK1/cyclinB(h)): 81% | Activity % (Tie2(R849W)(h)): 6% | Activity % (Src(T341M)(h)): 1% | Activity % (ROCK-I(h)): 93% | Activity % (Fms(h)): 8% | Activity % (CaMKIIγ(h)): 87% | Activity % (EphB3(h)): 99% | Activity % (PDGFRα(D842V)(h)): 17% | Activity % (Fgr(h)): 2% | Activity % (IGF-1R(h)): 5% | Activity % (PKCι(h)): 105% | Activity % (CaMKIIδ(h)): 98% | Activity % (CDK5/p35(h)): 77% | Activity % (TrkA(h)): 2% | Activity % (Ab1(H396P)(h)): −3% | Activity % (DCAMKL2(h)): 87% | Activity % (CDK3/cyclinE(h)): 59% | Activity % (CDK2/cyclinE(h)): 89% | Activity % (JNK2α2(h)): 107% | Activity % (MAPK1(h)): 128% | Activity % (PKC ? (h)): 99% | Activity % (ACK1(h)): 4% | Activity % (GRK6(h)): 69% | Activity % (Rsk3(h)): 25% | Activity % (Met(Y1248H)(h)): 16% | Activity % (MAPK2(m)): 101% | Activity % (LIMK1(h)): 15% | Activity % (SAPK2a(h)): 79% | Activity % (EphB2(h)): 21% | Activity % (ALK(h)): 17% | Activity % (eEF-2K(h)): 86% | Activity % (CK2(h)): 85% | Activity % (FGFR2(h)): 0%

— US9458137B2, “Substituted indol-5-ol derivatives and their therapeutical applications” (NantBioScience, Inc., priority 2012, dated 2016)
